In the NIST ThermoML archive (doi:10.1016/j.fluid.2016.01.035):
± gives the expanded uncertainty stated by the source.

Experiments:
[1] = for vapor or sublimation pressure: Liquid, Transpiration method
[2] = Molar enthalpy of transition or fusion; conditions: Crystal; DSC
[3] = molar enthalpy of vaporization or sublimation; conditions: 298.15 K; Crystal; TGA

| Normal melting temperature ([1]; Crystal, DTA) | Molar enthalpy of transition or fusion [2] | molar enthalpy [3] | vapor or sublimation pressure ([1]; 340.2 K) | vapor or sublimation pressure ([1]; 343.2 K) | vapor or sublimation pressure ([1]; 348.2 K) | vapor or sublimation pressure ([1]; 353.1 K) | vapor or sublimation pressure ([1]; 358.2 K) | vapor or sublimation pressure ([1]; 363.2 K) | vapor or sublimation pressure ([1]; 368.1 K) | vapor or sublimation pressure ([1]; 370.2 K) | vapor or sublimation pressure ([1]; 373.2 K) | vapor or sublimation pressure ([1]; 376.2 K) | Compound |
| --- | --- | --- | --- | --- | --- | --- | --- | --- | --- | --- | --- | --- | --- |
| 172.8 ± 0.5 °C | 8.29 ± 0.191 kcal/mol | 32.4 ± 0.478 kcal/mol | – | – | – | – | – | – | – | – | – | – | COc1cc(C=CC(=O)O)ccc1O [4-hydroxy-3-methoxycinnamic acid] |
| – | 5.62 ± 0.55 kcal/mol | – | 9.7e-05 ± 4e-06 kPa | 0.000128 ± 6e-06 kPa | 0.00021 ± 9e-06 kPa | 0.000324 ± 1.4e-05 kPa | 0.000513 ± 2.2e-05 kPa | 0.000769 ± 3.3e-05 kPa | 0.00117 ± 5e-05 kPa | 0.0014 ± 6e-05 kPa | 0.00179 ± 8e-05 kPa | 0.00229 ± 0.0001 kPa | COC(=O)C=Cc1ccc(O)c(OC)c1 [methyl 3-(4-hydroxy-3-methoxyphenyl)-2-propenoate] |
